Laboratory results reported in US5268308A, “Immunoassay for pyridostigmine” (priority 1989, dated 1993).

biological target: Pyridostigmine Antibody; assay: Cross-reactivity with pyridostigmine antibody in RIA (competition with labeled pyridostigmine); type: binding, rabbit (male New Zealand white); details: labeled pyridostigmine 5000 DPM; maximum tested 500 ng
Description: Antibodies to the pyridostigmine-BSA immunogen were produced by injecting male New Zealand white rabbits. Prior to injection, the immunogen was emulsified with an equal volume of complete Freund's adjuvant, purchased from Difco Laboratories. The initial immunization consisted of 0.8 mg of protein injected intracutaneously into the back of the rabbits. Booster injections containing 0.8 mg of immunogen and incomplete Freund's adjuvant were administered every one or two months for the next seven months. Blood was collected one week after each booster injection from the central ear vein. The blood was allowed to clot at room temperature and then centrifuged at 1500×g for 15 minutes. The separated serum was stored frozen at -20° C. until assayed for the presence of pyridostigmine antibody. […] FIG. 1 is the antibody dilution curve for pyridostigmine.
In the assay procedure tritiated pyridostigmine having specificity of […] was used as tracer. The dilution of tracer, antisera and pyridostigmine standards were made using 0.01 M phosphate buffer containing 150 mM sodium chloride with a pH of 7.4.. […] Both standard and sample tubes were always analyzed in duplicate. The assay was carried out according to the protocol shown in. Table 1 with the reagents were added to the assay tubes in the order shown in.
According to the protocol for the RIA of the present invention, after the addition of antisera, the contents of the tubes were mixed and incubated for 3 hours at 4° C. The antigen which bound to the antibody was separated by adding 100% saturated ammonium sulfate and centrifuging at 2500×g for 15 minutes. After aspiration of the supernatant, the precipitate was washed one time with 50% saturated ammonium sulfate; then the mixture was centrifuged and the supernatent removed. The precipitate was dissolved in 1.0 ml of distilled water, and the solution was transferred to a scintillation vial containing 10.0 ml of acquasol.
Cross-reactivity of various compounds with pyridostigmine antibody was determined in the RIA. […] Each compound was tested for cross-reactivity with the antibody. The maximum concentration of each compound tested was 500 ng.

Structure (SMILES) | IC 50 (50% inhibition of binding of 3H-pyridostigmine to the antibody) [ng]
CN(C)C(=O)Oc1cccc([N+](C)(C)C)c1 [Neostigmine] | > 500
C[n+]1ccccc1/C=N/O [Pralidoxime Chloride] | > 500
C[n+]1cccc(O)c1 [3-Hydroxy-N-methyl-pyridostigmine] | > 500
CNC(=O)Oc1ccc2c(c1)[C@]1(C)CCN(C)[C@@H]1N2C [Physostigmmine] | > 500
